Reference: patent publication US20220135622A1, “ANTIBACTERIAL PEPTIDES AND METHODS OF USE” (priority 2019, published 2022)
“Also recorded” adds a separate entry of the source. Where two headings read alike, the source gives them in different places.

Legend:
S. aureus USA300 = assay: MIC assay, S. aureus USA300; assay type: cell-based, Staphylococcus aureus; details: for MIC S. aureus USA300: Table 7
Protocol: (§1) Bacterial growth conditions. LB or Mueller Hinton II cation-adjusted broth (MHB II, BBL 212322) was prepared according to manufacturer's instructions and supplemented with arabinose at 0.02% for overnight growth or at indicated concentrations in the description of the figures. Bacterial cultures were grown at 37° C. When appropriate, media was supplemented with kanamycin (50 μg/mL), carbenicillin (50 μg/mL), chloramphenicol (12.5 or 25 μg/mL), hygromycin (200 μg/mL), and/or gentamicin (10 μg/mL).
(§2) Peptide sensitivity and MIC assays. Lyophilized peptides (Smartox Biotechnology, CPC Scientific. ABclonal) were solubilized to 10 mM in Tris buffer, pH 8, prior to making a 2-fold dilution series in MHBII cation adjusted broth with highest final assay concentration of 400-800 μM. Bacteria were grown to log phase and added to final OD600˜0.001. The final EDTA concentration was 0.5 mM for E. coli strains and 0.125 mM for USA300. The final volume of 10 μL/well in a 384 well black, clear bottom plate (Corning) was spun <1 min at <250×g and then incubated at 37° C. After 4 h, an equal volume (10 μL) of BacTiter-Glo™ (Promega) was added to each well and luminescence was read after 5 min on an EnVision plate reader (PerkinElmer). To measure the minimal inhibitory concentrations (MICs), bacteria from fresh overnight plates or log phase cultures were diluted with or without EDTA and peptides as described above to final OD600˜0.0002. Plates were incubated at 37° C. for 20 h before measuring OD600 with an EnVision plate reader.

E. coli BW25113 = assay type: cell-based, Escherichia coli; details: for MIC E coli BW25113 + EDTA / MIC E. coli BW25113: Table 7; for MIC: Table 2
In short: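 Growth inhibition: log-phase cells (OD600 ~0.001), peptides in 2-fold series up to 400–800 μM in MHB II, EDTA 0.5 mM (E. coli) or 0.125 mM (USA300), 4 h at 37 °C, ATP luminescence readout. MICs: inoculum at OD600 ~0.0002, with or without EDTA, 20 h at 37 °C, OD600 endpoint.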

E. coli imp4213 [1] = assay: MIC assay, E. coli imp4213; assay type: cell-based, Escherichia coli; details: for MIC E. coli imp4213: Table 7
Protocol: as §1, §2

E. coli ΔwaaD = assay: MIC assay, E. coli ΔwaaD; assay type: cell-based, Escherichia coli; details: for MIC E. coli ΔwaaD + EDTA: Table 7
Protocol: as §1, §2

A. baumannii = assay type: cell-based, Acinetobacter baumannii; details: Table 3, + EDTA (2 mM)
In short: (§3)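 MHB II cation-adjusted, peptides 2-fold series (top 400-800 μM final), inoculum OD600 ~0.0002, EDTA 0.5 mM (E. coli) / 0.125 mM (USA300) final. 37° C, 20 h, OD600 read-out.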

E. coli ΔwaaD pmrB^D149Y = assay: MIC assay, E. coli ΔwaaD pmrB^D149Y; assay type: cell-based, Escherichia coli; details: Table 4; + EDTA; PMX-resistant
Protocol: as §1
as §2, with “To measure the minimal inhibitory concentrations (MICs), bacteria from fresh overnight plates or log phase cultures were diluted with or without EDTA and peptides as described above to final OD600˜0.0002.” left out

E. cloacae = assay: MIC assay, E. cloacae; assay type: cell-based, Enterobacter cloacae; details: Table 3; + EDTA (2 mM)
Protocol: as §1
as §2, with “To measure the minimal inhibitory concentrations (MICs), bacteria from fresh overnight plates or log phase cultures were diluted with or without EDTA and peptides as described above to final OD600˜0.0002.” left out

[2] = Biolayer interferometry: captured biotinylated LAB peptides binding to LPS (KDO2-lipid A); details: for Kd: LPS (KDO2-lipid A), biotinylated peptide on SA biosensor, 25° C., estimated from equilibrium responses; for selective binding to LPS over PLs: versus the major PLs found in E. coli; for binding to LPS: interferometry, above background
Protocol: (§4) Biolayer interferometry. Phospholipid (Avanti polar lipids) and KDO2-lipid A (US Biological Life Sciences) stock solutions were prepared by resuspension into 25 mM Tris pH 8, 100 mM NaCl, 0.05% LMNG buffer and solubilized overnight at 4° C. Lipid stocks were diluted prior to experiments into 25 mM Tris pH 8, 100 mM NaCl, 0.5 mg/mL BSA, 0.05% LMNG. All assays were performed at 25° C. in 25 mM Tris pH 8, 100 mM NaCl, 0.5 mg/mL BSA, 0.05% LMNG. Biotinylated-LAB peptides were loaded onto SA biosensors to a response of approximately 0.5 nm. Binding to phospholipids and KDO2-lipid A was measured at concentrations of 150, 100, 50, 25, and 10 μM with 300s association and dissociation steps. Assays were performed in triplicate on an Octet Red384 (ForteBio) and buffer and lipid signals were subtracted by using a biotin-blocked reference streptavidin (SA) biosensor. Dissociation constants for LABWT and LABWT+, interactions with KDO2-lipidA were estimated by plotting response values at equilibrium as a function of concentration and fit to a global specific binding with Hill slope model in Prism (Graphpad Software).
Based on the intriguing chemical characteristics of the LPS-PbgA interface, the possibility that a linear peptide derived from PbgA might selectively bind to LPS in vitro was considered. A peptide encompassing the lipid A-binding (LAB)-motif (209SYPMTARRFLEKHGLLD225; SEQ ID NO: 67) with an additional Gly-Ser-linker and biotin modification was generated and used in an interferometry-based assay. […] Two peptides intended to destabilize essential lipid A binding determinants were tested as controls.

E. coli ΔwaaD MCR-1 = assay: MIC assay, E. coli ΔwaaD MCR-1; assay type: cell-based, Escherichia coli
Protocol: as §1, §2

E. coli + FhuAΔC/Δ4L = assay type: cell-based, Escherichia coli; details: Table 2; no EDTA
Description: pFhuAΔC/Δ4L was constructed by synthesizing the fhuA coding sequence lacking the N-terminal cork domain, Δ1-160, and extracellular loops L3, L4, L5, and L11 (Mohammad, et al., J Biol Chem 286, 8000-8013, (2011)).fhuAΔcΔ4L was amplified with primers N3P-105 (encoding the bla constitutive promoter, ribosome binding site, and AUG start codon from pUC19 (New England BioLabs) and N3P-107, and cloning into pACYC184 with BamHI and HindIII (New England BioLabs).
as §1
Peptide sensitivity and MIC assays. […] After 4 h, an equal volume (10 μL) of BacTiter-Glo™ (Promega) was added to each well and luminescence was read after 5 min on an EnVision plate reader (PerkinElmer). […] Plates were incubated at 37° C. for 20 h before measuring OD600 with an EnVision plate reader.

P. aeruginosa = assay type: cell-based, Pseudomonas aeruginosa; details: Table 3; + EDTA (2 mM)
In short: as §3

K. pneumoniae = assay type: cell-based, Klebsiella pneumoniae; details: Table 3; + EDTA (2 mM)
In short: as §3

wild-type E. coli strain = assay: Bacterial growth inhibition, wild-type E. coli strain; assay type: cell-based, Escherichia coli
Protocol: as §1
as §2, with “To measure the minimal inhibitory concentrations (MICs), bacteria from fresh overnight plates or log phase cultures were diluted with or without EDTA and peptides as described above to final OD600˜0.0002.” left out

[3] = Biolayer interferometry: captured biotinylated LAB peptides binding to phospholipids; parameters: species or system E. coli; details: above background
Protocol: as §4
Based on the intriguing chemical characteristics of the LPS-PbgA interface, the possibility that a linear peptide derived from PbgA might selectively bind to LPS in vitro was considered. […]

E. coli = assay: Cell growth inhibition assay with or without EDTA; assay type: cell-based, Escherichia coli; details: irrespective of the presence or absence of EDTA (0.5 mM)
Protocol: as §2
It was reasoned that the relatively large molecular weight (>2 kDa) and limited α-helical propensity of the linear LABWT peptide (SEQ ID NO: 1) might limit its access to LPS in the bacterial OM. […]

E. coli+FhuAΔC/Δ4L = assay: Bacterial growth inhibition, E. coli+FhuAΔC/Δ4L; assay type: cell-based, Escherichia coli
Protocol: as §1
as §2, with “To measure the minimal inhibitory concentrations (MICs), bacteria from fresh overnight plates or log phase cultures were diluted with or without EDTA and peptides as described above to final OD600˜0.0002.” left out

E. coli imp4213 [4] = assay: Bacterial growth inhibition, E. coli imp4213; assay type: cell-based, Escherichia coli
Protocol: as §1
as §2, with “To measure the minimal inhibitory concentrations (MICs), bacteria from fresh overnight plates or log phase cultures were diluted with or without EDTA and peptides as described above to final OD600˜0.0002.” left out

E. coli ΔwaaD + vect. = assay: MIC assay, E. coli ΔwaaD + vect.; assay type: cell-based, Escherichia coli; details: Table 7
Protocol: as §1, §2

E. coli mcr-1 = assay type: cell-based, Escherichia coli; details: Table 6
In short: as §3

| Substance | MIC S. aureus USA300 (S. aureus USA300) [µM] | MIC E coli BW25113 + EDTA (E. coli BW25113) [µM] | MIC E. coli BW25113 (E. coli BW25113; no EDTA) [µM] | MIC E. coli imp4213 (E. coli imp4213 [1]) | MIC E. coli ΔwaaD + EDTA (E. coli ΔwaaD; + EDTA) [µM] | other results |
| --- | --- | --- | --- | --- | --- | --- |
| Ac-GSSYPMTARRFLEKWGLLD-NH2 [compound 6] | >800 | 800 | >800 | 400 µM | >800 | – |
| Ac-GSSYPMTARRFLEKHGL-NH2 [compound 8] | >800 | 800 | >800 | 200 µM | 800 | – |
| Ac-YPMTARRFLEKHGLL-NH2 [compound 11] | >800 | 400 | >800 | 200 µM | 400 | – |
| Ac-SYPMTARRFLEKWGLLR-NH2 [SEQ ID NO: 68, SYPMTARRFLEKWGLLR] | – | – | – | – | – | MIC (S. aureus USA300; Table 2, Gram-positive wild-type strain): >800 µM; MIC (A. baumannii): 400 µM; MIC (A. baumannii; listed as LABWT+): 200 µM; MIC (E. coli ΔwaaD pmrB^D149Y): 100 µM; MIC (E. cloacae): 100 µM; improved affinity towards LPS ([2]; LABWT+ relative to LABWT): ~1.5 fold; Kd [2]: ~55 µM; selective binding to LPS over PLs [2]: maintaining selectivity over PL binding; MIC (E. coli ΔwaaD MCR-1; Table 4, + EDTA, PMX-resistant): 100 µM; MIC (E. coli BW25113; + 0.5 mM EDTA): 200 µM; MIC (E. coli BW25113; wild-type strain, no EDTA): >800 µM; MIC (E. coli imp4213 [1]; Table 2, no EDTA): 25 µM; MIC (E. coli + FhuAΔC/Δ4L): 50 µM; MIC (P. aeruginosa): 400 µM; MIC (K. pneumoniae): >400 µM; growth inhibition (wild-type E. coli strain): failed to inhibit the growth; MIC (E. coli ΔwaaD; Table 2, no EDTA): 400 µM; MIC (E. coli ΔwaaD; Table 4, + EDTA): 100 µM |
| GSSYPMDARRFLEKHGLLD (Ac-GSSYPMDARRFLEKHGLLD-NH2) [SEQ ID NO: 3] | – | – | – | – | – | binding to PLs [3]: Neither a peptide lacking the α7 helix (LABΔα7; SEQ ID NO: 2) nor a peptide containing the T213D mutation equivalent (LABT213D; SEQ ID NO: 3) showed detectable binding to LPS or PLs above background; binding to LPS ([2]; listed as LABT213D): Neither a peptide lacking the α7 helix (LABΔα7; SEQ ID NO: 2) nor a peptide containing the T213D mutation equivalent (LABT213D; SEQ ID NO: 3) showed detectable binding to LPS or PLs above background; also recorded: failed to bind LPS in vitro; effect on bacterial cell growth (E. coli): showed no effect on bacterial cell growth |
| Ac-GSSYPMTARRFLEKHGLL-NH2 [compound 7] | >800 | 400 | >800 | 200/400 | 400 | – |
| GSSYPMTARRFLEKHGLLD [SEQ ID NO: 1] | – | – | – | – | – | growth inhibition (E. coli+FhuAΔC/Δ4L): significantly impacted the growth; Kd [2]: ~75 µM; selective binding to LPS over PLs [2]: bound LPS selectively over the major PLs; growth inhibition (E. coli imp4213 [4]): significantly impacted the growth; growth inhibition (wild-type E. coli strain): failed to inhibit the growth |
| GSSYPMTARRFLE (Ac-GSSYPMTARRFLE-NH2) [SEQ ID NO: 2] | – | – | – | – | – | binding to PLs [3]: Neither a peptide lacking the α7 helix (LABΔα7; SEQ ID NO: 2) nor a peptide containing the T213D mutation equivalent (LABT213D; SEQ ID NO: 3) showed detectable binding to LPS or PLs above background; binding to LPS ([2]; listed as LABΔα7): Neither a peptide lacking the α7 helix (LABΔα7; SEQ ID NO: 2) nor a peptide containing the T213D mutation equivalent (LABT213D; SEQ ID NO: 3) showed detectable binding to LPS or PLs above background; also recorded: failed to bind LPS in vitro; effect on bacterial cell growth (E. coli): showed no effect on bacterial cell growth |
| Ac-GSSYPMTARRFLEKHGLLR-NH2 [compound 13] | >800 | 800 | >800 | 200 µM | 200 | MIC E coli ΔwaaD − MCR1 (E. coli ΔwaaD MCR-1; Table 7): 200 µM; MIC E. coli ΔwaaD + vect. (E. coli ΔwaaD + vect.): 800 µM |
| Ac-YPMTARRFLEKHGLLD-NH2 [compound 10] | >800 | 800 | >800 | 800 µM | >800 | – |
| Polymyxin B [reference compound] | – | – | – | – | – | Polymyxin B MIC (E. coli BW25113; Table 6, E. coli K-12 wild-type parent BW25113): 0.2 µM; Polymyxin B MIC (E. coli mcr-1): 12.5 µM |
| Ac-SSYPMTARRFLEKHGLLD-NH2 [compound 9] | >800 | >800 | >800 | 800 µM | >800 | – |
